{"source": "paper PMC10487517", "about": "“Impacts of Halogen Substitutions on Bisphenol A Compounds Interaction with Human Serum Albumin: Exploring from Spectroscopic Techniques and Computer Simulations” (International Journal of Molecular Sciences, 2023)", "key": {"HSA [1]": {"biological_target": "T1, HSA (Homo sapiens, UniProt P02768)", "T1 construct": "HSA and Tris were obtained from Sigma-Aldrich, St. Louis, MI, USA; purchased Sigma-Aldrich", "T1 sequence (P02768 25-609)": "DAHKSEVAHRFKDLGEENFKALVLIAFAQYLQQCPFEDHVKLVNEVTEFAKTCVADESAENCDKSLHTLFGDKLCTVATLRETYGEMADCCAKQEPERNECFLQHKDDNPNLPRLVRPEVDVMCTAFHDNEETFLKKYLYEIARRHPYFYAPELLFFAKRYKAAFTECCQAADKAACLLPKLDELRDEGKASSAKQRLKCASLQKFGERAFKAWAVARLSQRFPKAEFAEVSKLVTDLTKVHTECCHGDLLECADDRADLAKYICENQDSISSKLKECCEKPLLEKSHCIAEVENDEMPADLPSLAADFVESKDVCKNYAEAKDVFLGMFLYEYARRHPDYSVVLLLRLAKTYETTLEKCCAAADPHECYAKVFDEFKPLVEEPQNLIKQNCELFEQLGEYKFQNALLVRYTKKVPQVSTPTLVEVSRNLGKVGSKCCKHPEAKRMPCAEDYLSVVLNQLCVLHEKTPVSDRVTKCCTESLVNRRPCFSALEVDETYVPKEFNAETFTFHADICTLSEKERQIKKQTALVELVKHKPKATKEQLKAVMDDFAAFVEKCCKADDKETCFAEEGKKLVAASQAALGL", "settings": "level of the Ka value; cited from earlier work"}, "HSA [2]": {"biological_target": "T1, HSA", "test": "Fluorescence quenching / fluorescence–thermodynamic experiment with HSA", "assay_type": "binding", "settings": "for Ksv: Stern–Volmer quenching constant, Tris-HCl pH 7.4; for Kd: Ka, binding constant, double logarithmic equation; for ∆H: enthalpy change of binding; for ∆H / ∆S: from Ka at 298, 303, 310 K; for ∆S: entropy change of binding; for fluorescence quenching mechanism: from Kq and trend of Ksv with temperature; for main binding forces: from signs of ΔH and ΔS", "procedure": "Prior to taking steady-state fluorescence measurements, the HSA and ligand mixture solution was given 2 min to equilibrate.\nTo account for the ligand concentration in the study system, which was much lower than the 10^−5 M level, the inner-filter effect of the ligand was neglected. The Stern–Volmer equation and double logarithmic equation (Equations (1)–(3)) were used to analyze the data of fluorescence spectra. Thermodynamic parameters were obtained using Equation (4) to determine the driving forces in the binding process. […] In addition, R and T are the gas constant at room temperature and the temperature in Kelvin, respectively."}, "HSA [3]": {"biological_target": "T1, HSA", "test": "Site-specific competitive experiment (fluorescence) with site markers", "assay_type": "binding", "settings": "Ka, with Digoxigenin, [Ligands]/[Site Marker] 1:1; room temperature; n = 3"}, "HSA [4]": {"biological_target": "T1, HSA", "test": "Circular dichroism spectroscopy, HSA secondary structure (CONTINLL)", "settings": "[HSA] = [ligand] = 1.0 × 10^−6 M; for β-Sheet: free HSA 7.7; for β-Turn: free HSA 14.1; for Random Coil: free HSA 26.9; for α-Helix: free HSA 51.4", "description": "The concentration of HSA and the ligands was set as 1.0 × 10^−6 M. The instrumental parameters were set as follows: path length of 1 mm and scanning speed of 100 nm min^−1."}, "HSA [5]": {"biological_target": "T1, HSA", "test": "Site-specific competitive experiment (fluorescence) with site markers", "assay_type": "binding", "settings": "for Kd: Ka, room temperature, n = 3; for primary binding site on HSA: site-marker competition", "procedure": "The site-specific competitive experiment was conducted following the methodology described in the literature, using […], ibuprofen, and phenylbutazone as site-specific probes. First, a 1:1 complex of the site-specific probe with HSA was prepared in the buffer solution. […] This experiment was conducted under the same test conditions as the thermodynamic experiment, except at room temperature."}, "HSA [6]": {"biological_target": "T1, HSA", "test": "Three-dimensional fluorescence spectra of HSA with ligand", "settings": "[HSA] = [ligand] = 1.0 × 10^−6 M; for Peak 1 ∆λ: free HSA 62; for Peak 2 ∆λ: free HSA 109; for Peak 2 λex/λem: free HSA 225/334; for Peak 1 λex/λem: free HSA 279/341; for Peak 1 F: free HSA 368.7; for Peak 2 F: free HSA 801.7; for change of Stokes shift of peak 2: versus free HSA"}, "[7]": {"settings": "298 K, quenching rate constant, Kq=Ksv/τ0, τ0 6.30 ns"}, "[8]": {"settings": "303 K, quenching rate constant, Kq=Ksv/τ0, τ0 6.30 ns"}, "[9]": {"settings": "310 K, quenching rate constant, Kq=Ksv/τ0, τ0 6.30 ns"}, "[10]": {"settings": "compared with maximum scattering collision quenching rate constant for dynamic quenching"}, "[11]": {"settings": "Control group, [Ligands]/[Site Marker] 1:0"}, "[12]": {"settings": "with Ibuprofen, [Ligands]/[Site Marker] 1:1"}, "[13]": {"settings": "with Phenylbutazone, [Ligands]/[Site Marker] 1:1"}}}
{"smiles": "CC(C)(c1ccc(O)cc1)c1ccc(O)cc1", "note": "[BPA, Bisphenol A]", "values": [{"measurement": "Ka", "setting": "HSA [1]", "value": "~1000", "unit": "M⁻¹"}]}
{"smiles": "CC(C)(c1cc(Br)c(O)c(Br)c1)c1cc(Br)c(O)c(Br)c1", "note": "[TBBPA, tetrabromobisphenol A]", "values": [{"measurement": "∆G", "setting": "HSA [2]; 298 K", "value": -7.906, "unit": "kcal/mol"}, {"measurement": "Kq", "setting": "HSA [2]; [7]", "value": "1.210 10^14 M^−1·s^−1"}, {"measurement": "∆G", "setting": "HSA [2]; 303 K", "value": -8.114, "unit": "kcal/mol"}, {"measurement": "Ksv", "setting": "HSA [2]; 303 K", "value": "7.534 10^5 M^−1"}, {"measurement": "Kq", "setting": "HSA [2]; [8]", "value": "1.211 10^14 M^−1·s^−1"}, {"measurement": "∆G", "setting": "HSA [2]; 310 K", "value": -8.408, "unit": "kcal/mol"}, {"measurement": "Ksv", "setting": "HSA [2]; 310 K", "value": "7.627 10^5 M^−1"}, {"measurement": "Kq", "setting": "HSA [2]; [9]", "value": "1.226 10^14 M^−1·s^−1"}, {"measurement": "Kd", "setting": "HSA [2]; 298 K", "value": 1600, "unit": "nM"}, {"measurement": "Kd", "setting": "HSA [2]; 303 K", "value": 1390, "unit": "nM"}, {"measurement": "Kd", "setting": "HSA [2]; 310 K", "value": 1180, "unit": "nM"}, {"measurement": "Kq", "setting": "HSA [2]; [10]", "value": "greater than 2.0 × 10^10 M^−1·s^−1"}, {"measurement": "∆H", "setting": "HSA [2]", "value": 4.587, "unit": "kcal/mol"}, {"measurement": "∆S", "setting": "HSA [2]", "value": 175.4, "unit": "J·moL^−1·K^−1"}, {"measurement": "fluorescence quenching mechanism", "setting": "HSA [2]", "value": "static quenching mechanism"}, {"measurement": "main binding forces", "setting": "HSA [2]", "value": "hydrophobic interactions"}, {"measurement": "Kd", "setting": "HSA [3]", "value": 743, "unit": "nM"}, {"measurement": "β-Sheet", "setting": "HSA [4]", "value": 7.3, "unit": "%"}, {"measurement": "β-Turn", "setting": "HSA [4]", "value": 14.7, "unit": "%"}, {"measurement": "Random Coil", "setting": "HSA [4]", "value": 29.8, "unit": "%"}, {"measurement": "α-Helix", "setting": "HSA [4]", "value": 48.2, "unit": "%"}, {"measurement": "Kd", "setting": "HSA [5]; [11]", "value": 734, "unit": "nM"}, {"measurement": "Kd", "setting": "HSA [5]; [12]", "value": 740, "unit": "nM"}, {"measurement": "Kd", "setting": "HSA [5]; [13]", "value": 1230, "unit": "nM"}, {"measurement": "primary binding site on HSA", "setting": "HSA [5]", "value": "site I"}, {"measurement": "Peak 1 ∆λ", "setting": "HSA [6]", "value": 59, "unit": "nm"}, {"measurement": "Peak 2 ∆λ", "setting": "HSA [6]", "value": 103, "unit": "nm"}, {"measurement": "Peak 2 λex/λem", "setting": "HSA [6]", "value": "225/328"}, {"measurement": "Peak 1 λex/λem", "setting": "HSA [6]", "value": "279/338"}, {"measurement": "Peak 1 F", "setting": "HSA [6]", "value": 254.0}, {"measurement": "Peak 2 F", "setting": "HSA [6]", "value": 575.5}, {"measurement": "change of Stokes shift of peak 2", "setting": "HSA [6]", "value": 6, "unit": "nm"}]}
{"smiles": "CC(C)(c1cc(Cl)c(O)c(Cl)c1)c1cc(Cl)c(O)c(Cl)c1", "note": "[TCBPA, tetrachlorobisphenol A]", "values": [{"measurement": "∆G", "setting": "HSA [2]; 298 K", "value": -7.187, "unit": "kcal/mol"}, {"measurement": "Kq", "setting": "HSA [2]; [7]", "value": "0.2135 10^14 M^−1·s^−1"}, {"measurement": "∆G", "setting": "HSA [2]; 303 K", "value": -7.084, "unit": "kcal/mol"}, {"measurement": "Ksv", "setting": "HSA [2]; 303 K", "value": "1.296 10^5 M^−1"}, {"measurement": "Kq", "setting": "HSA [2]; [8]", "value": "0.2083 10^14 M^−1·s^−1"}, {"measurement": "∆G", "setting": "HSA [2]; 310 K", "value": -6.943, "unit": "kcal/mol"}, {"measurement": "Ksv", "setting": "HSA [2]; 310 K", "value": "1.289 10^5 M^−1"}, {"measurement": "Kq", "setting": "HSA [2]; [9]", "value": "0.2073 10^14 M^−1·s^−1"}, {"measurement": "Kd", "setting": "HSA [2]; 298 K", "value": 4900, "unit": "nM"}, {"measurement": "Kd", "setting": "HSA [2]; 303 K", "value": 9080, "unit": "nM"}, {"measurement": "Kd", "setting": "HSA [2]; 310 K", "value": 11900, "unit": "nM"}, {"measurement": "Kq", "setting": "HSA [2]; [10]", "value": "greater than 2.0 × 10^10 M^−1·s^−1"}, {"measurement": "∆H", "setting": "HSA [2]", "value": -13.23, "unit": "kcal/mol"}, {"measurement": "∆S", "setting": "HSA [2]", "value": "−84.86", "unit": "J·moL^−1·K^−1"}, {"measurement": "fluorescence quenching mechanism", "setting": "HSA [2]", "value": "mixed quenching mechanism"}, {"measurement": "main binding forces", "setting": "HSA [2]", "value": "hydrogen bonds and van der Waals forces"}, {"measurement": "Kd", "setting": "HSA [3]", "value": 1280, "unit": "nM"}, {"measurement": "β-Sheet", "setting": "HSA [4]", "value": 8.2, "unit": "%"}, {"measurement": "β-Turn", "setting": "HSA [4]", "value": 14.2, "unit": "%"}, {"measurement": "Random Coil", "setting": "HSA [4]", "value": 27.2, "unit": "%"}, {"measurement": "α-Helix", "setting": "HSA [4]", "value": 50.4, "unit": "%"}, {"measurement": "Kd", "setting": "HSA [5]; [11]", "value": 1370, "unit": "nM"}, {"measurement": "Kd", "setting": "HSA [5]; [12]", "value": 1320, "unit": "nM"}, {"measurement": "Kd", "setting": "HSA [5]; [13]", "value": 3130, "unit": "nM"}, {"measurement": "primary binding site on HSA", "setting": "HSA [5]", "value": "site I"}, {"measurement": "Peak 1 ∆λ", "setting": "HSA [6]", "value": 61, "unit": "nm"}, {"measurement": "Peak 2 ∆λ", "setting": "HSA [6]", "value": 108, "unit": "nm"}, {"measurement": "Peak 2 λex/λem", "setting": "HSA [6]", "value": "226/334"}, {"measurement": "Peak 1 λex/λem", "setting": "HSA [6]", "value": "279/340"}, {"measurement": "Peak 1 F", "setting": "HSA [6]", "value": 323.4}, {"measurement": "Peak 2 F", "setting": "HSA [6]", "value": 692.6}, {"measurement": "change of Stokes shift of peak 2", "setting": "HSA [6]", "value": 1, "unit": "nm"}]}
